Consider ten compounds from US12552826B2, “PRMT5 inhibitors” (Merck Sharp & Dohme LLC, priority 2018, dated 2026).

The target of test [1] is T1, PRMT5-MEP50 enzyme complex (Homo sapiens, UniProt O14744).
T1 construct: Full-length (FL)-PRMT5-MEP50 enzyme complex (recombinant proteins from baculovirus-transfected Sf21 cells); made in house; host or cells: baculovirus-transfected Sf21 insect cells
Kind of test: PRMT5-MEP50 Enzyme Methylation Assay. The format is biochemical. The protocol:
PRMT5-MEP50 biochemical assay is a direct measurement of the methylation activity of the enzyme complex on a short peptide substrate derived from the N-terminus of H4 histone. Methylation experiment is performed with recombinant PRMT5-MEP50 protein complex. The assessment of inhibitory effect of small molecules is measured by the effectiveness of the compounds to inhibit this reaction (EC50).
In this assay, the potency (EC50) of each compound was determined from a twenty-point (1:2 serial dilution; top compound concentration of 100000 nM) titration curve using the following outlined procedure. To each well of a white ProxiPlus 384 well-plate, 100 nL of compound (1% DMSO in final assay volume of 10 μL) was dispensed, followed by the addition of 8 μL of 1× assay buffer (50 mM Bicine pH 8.0, 1 mM DTT, 0.004% Tween20, 0.01% BSA) containing 1.25 nM of Full-length (FL)-PRMT5-MEP50 enzyme complex (recombinant proteins from baculovirus-transfected Sf21 cells: FL-PRMT5; MW=[…] and FL-MEP50; MW=38614) and 1 μL of 150 μM S-(5′-Adenosyl)-L-Methionine Chloride (SAM). Plates were sealed and placed in a 37° C. humidified chamber for a 60 minutes pre-incubation with compound. Subsequently, each reaction was initiated by the addition of 1 μL 1× assay buffer containing 750 nM biotinylated H4R3 (Me1) peptide. The final reaction in each well of 10 μL consists of 1.0 nM PRMT5-MEP50, 75 nM biotinylated-peptide, and 15 μM SAM. Methylation reactions were allowed to proceed for 150 minutes in a sealed plate at 37° C. Reactions were immediately quenched by the addition of 1 μL of 5% formic acid. Plates were then frozen and shipped to SAMDITM Tech Inc. to determine the percent conversion from H4R^3 (Me1) to H4R^3 (Me2). Dose-response curves were generated by plotting percent effect (% product conversion; Y-axis) vs. Log10 compound concentrations (X-axis). EC50 values were determined by non-linear regression according to models for either sigmoidal (4 parameters) or biphasic (7 parameters) dose-response curves.

In a further test the target is T2, PRMT5 (Homo sapiens, UniProt O14744).
T2 construct: endogenous in cells; host or cells: MCF-7
T2 sequence (O14744 whole entry): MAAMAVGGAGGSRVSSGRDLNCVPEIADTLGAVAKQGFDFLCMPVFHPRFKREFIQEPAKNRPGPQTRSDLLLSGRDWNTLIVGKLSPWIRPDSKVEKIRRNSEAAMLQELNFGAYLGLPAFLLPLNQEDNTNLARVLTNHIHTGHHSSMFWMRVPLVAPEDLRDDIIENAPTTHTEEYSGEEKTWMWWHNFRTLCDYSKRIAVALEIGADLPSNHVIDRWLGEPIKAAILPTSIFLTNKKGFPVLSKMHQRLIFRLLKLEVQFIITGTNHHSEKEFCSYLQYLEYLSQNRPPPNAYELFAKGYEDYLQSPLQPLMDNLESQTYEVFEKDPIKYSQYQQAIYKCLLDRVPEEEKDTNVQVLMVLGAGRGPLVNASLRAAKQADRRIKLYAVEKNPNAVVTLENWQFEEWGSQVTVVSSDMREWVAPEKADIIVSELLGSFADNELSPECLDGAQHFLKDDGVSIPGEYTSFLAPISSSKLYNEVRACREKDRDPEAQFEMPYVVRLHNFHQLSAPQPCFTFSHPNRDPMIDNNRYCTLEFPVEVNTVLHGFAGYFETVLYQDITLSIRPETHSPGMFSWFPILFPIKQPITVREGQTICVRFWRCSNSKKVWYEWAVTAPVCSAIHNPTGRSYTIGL
T2 sequence (Q9BQA1 whole entry partner): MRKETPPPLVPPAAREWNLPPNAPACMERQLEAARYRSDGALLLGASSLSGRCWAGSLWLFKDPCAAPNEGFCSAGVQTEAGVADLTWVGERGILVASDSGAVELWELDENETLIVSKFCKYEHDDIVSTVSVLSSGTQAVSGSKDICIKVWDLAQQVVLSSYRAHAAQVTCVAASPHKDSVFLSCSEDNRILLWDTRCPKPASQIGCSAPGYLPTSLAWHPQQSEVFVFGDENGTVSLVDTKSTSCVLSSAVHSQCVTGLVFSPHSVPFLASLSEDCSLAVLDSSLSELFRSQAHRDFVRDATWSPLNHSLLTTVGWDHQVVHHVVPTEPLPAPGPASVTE
Kind of test: PRMT5 Cell Target Engagement (TE) Assay. The test is classed as cell-based. Particulars: MCF-7 cells, 3 days treatment, nuclear SDMA by high content imaging. The procedure, abridged:
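MCF-7 cells seeded 5 h, then treated 3 days at 37 °C with 10-point 1:3 dilutions from 10000 nM. Fixed cells immunostained for SDMA with AF488 secondary; nuclear intensity imaged per cell and expressed as % inhibition vs DMSO. EC50 from 4-parameter robust fit.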

Setting [2] is: recombinant FL-PRMT5-MEP50, biotinylated H4R3(Me1) peptide, 15 μM SAM, single EC50 (4 parameter sigmoidal fit) or first EC50 of 7 parameter biphasic fit, read-out: Enzyme Methylation Assay (EC50 or EC50_1).
Where [3] appears, read: second EC50 of 7 parameter biphasic fit, read-out: Enzyme Methylation Assay (EC50_2).

SMILES strings stand for the structures. Read-outs that look alike come from different tables or passages of the source.

T1 sequence (O14744 whole entry): as the sequence (O14744 whole entry) above
T1 sequence (Q9BQA1 whole entry partner): as the sequence (Q9BQA1 whole entry partner) above

Take `C=C(c1cccc2c1CNCC2)[C@H]1O[C@@H](n2ccc3c(C)ncnc32)[C@H](O)[C@]1(C)O` [Example 85, (2R,3S,4R,5R)-3-methyl-5-(4-methyl-7H-pyrrolo[2,3-d]pyrimidin-7-yl)-2-(1-(1,2,3,4-tetrahydroisoquinolin-8-yl)vinyl)tetrahydrofuran-3,4-diol]: the EC50 in test [1] (setting [2]) was 34 nM; in test [1] (setting [3]), 2660 nM; at PRMT5, 9380 nM.
Taken in the same sequence, the figures for `C[C@@]1(O)[C@@H]([C@@H](O)c2cccc3c2CNCC3)O[C@@H](n2ccc3c(N)ncnc32)[C@@H]1O` [Example 71, 7-[(5S)-3-C-methyl-5-C-(1,2,3,4-tetrahydroisoquinolin-8-yl)-beta-D-ribofuranosyl]-7H-pyrrolo[2,3-d]pyrimidin-4-amine] were 15.5 nM, 1700 nM and > 10000 nM.
For `C[C@@]1(O)[C@@H]([C@H](O)c2ccc(Cl)c(Cl)c2)O[C@@H](n2ccc3c(N)ncnc32)[C@@H]1O` [Example 13, 7-[(5R)-5-C-(3,4-dichlorophenyl)-3-C-methyl-beta-D-ribofuranosyl]-7H-pyrrolo[2,3-d]pyrimidin-4-amine], the EC50 in test [1] (setting [2]) stood at 1.47 nM; in test [1] (setting [3]), 40 nM; on PRMT5 it was 39 nM.
Taken in the same sequence, the figures for `C[C@@]1(O)[C@@H]([C@H](O)c2cccc3c2CNCC3)O[C@@H](n2ccc3c(N)ncnc32)[C@@H]1O` [Example 70, 7-[(5R)-3-C-methyl-5-C-(1,2,3,4-tetrahydroisoquinolin-8-yl)-beta-D-ribofuranosyl]-7H-pyrrolo[2,3-d]pyrimidin-4-amine] were 1.79 nM, 42 nM and 1190 nM.
Taken in the same sequence, the figures for `C[C@@]1(O)[C@@H]([C@H](O)c2ccc(F)c(Cl)c2)O[C@@H](n2ccc3c(N)ncnc32)[C@@H]1O` [Example 15, 7-[(5R)-5-C-(3-chloro-4-fluorophenyl)-3-C-methyl-beta-D-ribofuranosyl]-7H-pyrrolo[2,3-d]pyrimidin-4-amine] were 0.51 nM, 75 nM and 65 nM.
The matching figures for `Cc1ncnc2c1ccn2[C@@H]1O[C@H]([C@H](C)c2cccc3c2CNCC3)[C@@](C)(O)[C@H]1O` [Example 86, (2R,3S,4R,5R)-3-methyl-5-(4-methyl-7H-pyrrolo[2,3-d]pyrimidin-7-yl)-2-((R)-1-(1,2,3,4-tetrahydroisoquinolin-8-yl)ethyl)tetrahydrofuran-3,4-diol]: 343 nM, 33100 nM and > 10000 nM.
Turning to `Cc1ccccc1[C@@H](O)[C@H]1O[C@@H](n2ccc3c(N)ncnc32)[C@H](O)[C@]1(C)O` [Example 40, 7-[(5R)-3-C-methyl-5-C-(2-methylphenyl)-beta-D-ribofuranosyl]-7H-pyrrolo[2,3-d]pyrimidin-4-amine], the EC50 on PRMT5 turned out to be 2270 nM.
On the same count and under the same terms, the same measure for `COc1ccc([C@H](O)[C@H]2O[C@@H](n3ccc4c(N)ncnc43)[C@H](O)[C@]2(C)O)cc1` [Example 33, 7-[(5S)-5-C-(4-methoxyphenyl)-3-C-methyl-beta-D-ribofuranosyl]-7H-pyrrolo[2,3-d]pyrimidin-4-amine]: > 10000 nM.
Compound `C[C@@]1(O)[C@@H]([C@H](O)c2cc(Cl)cc(C(F)(F)F)c2)O[C@@H](n2ccc3c(N)ncnc32)[C@@H]1O` [Example 60, 7-{(5R)-5-C-[3-chloro-5-(trifluoromethyl)phenyl]-3-C-methyl-beta-D-ribofuranosyl}-7H-pyrrolo[2,3-d]pyrimidin-4-amine] had an EC50 on PRMT5 of 403 nM.
At PRMT5, `C[C@]1(O)[C@@H](O)[C@H](n2ccc3c(N)ncnc32)O[C@@H]1[C@](C)(O)c1cc(F)cc(C(F)F)c1` [Example 66, 7-{6-deoxy-5-C-[3-(difluoromethyl)-5-fluorophenyl]-3-C-methyl-alpha-L-talofuranosyl}-7H-pyrrolo[2,3-d]pyrimidin-4-amine] displayed an EC50 of 4 nM.
